What was measured:
[1] = for thermal conductivity / thermal diffusivity: 100 kPa; for thermal diffusivity: Laser flash apparatus
[2] = molar heat capacity at constant pressure; conditions: 100 kPa, DSC

[Fe] [iron]
Conditions | mass density [kg/m3]
[1], 293 K, 101.33 kPa, Crystal 4 | 7849

Conditions | molar heat capacity at constant pressure, [2] [J/K/mol] | thermal conductivity, [1] [W/m/K] | thermal diffusivity, [1] [m2/s]
293.15 K, Crystal 4 | 24.96 | 82.5 | 2.22e-05
373.15 K, Crystal 4 | 27.53 | 73.4 | 1.92e-05
473.15 K, Crystal 4 | 29.54 | 65.5 | 1.58e-05
573.15 K, Crystal 4 | 31.38 | 58.2 | 1.31e-05
673.15 K, Crystal 4 | 34.23 | 52 | 1.08e-05
773.15 K, Crystal 4 | 37.36 | 46.7 | 8.91e-06
873.15 K, Crystal 4 | 41.66 | 41.1 | 7.06e-06
973.15 K, Crystal 4 | 48.64 | 36.2 | 5.18e-06
1073.2 K, Crystal 3 | 52.72 | 31.5 | 4.49e-06
1173.2 K, Crystal 3 | 42.22 | 30 | 5.27e-06
1273.2 K, Crystal 2 | 33.62 | 28.4 | 6.33e-06

Reference: the NIST ThermoML archive (doi:10.1007/s10765-019-2568-3)
